# What was measured:
# bananas [1] = test: Example US-7a: various number of bananas per bag (appearance); format: in vivo, Musa; design: scale not given here; conditions: 1,000 ppb 1-MCP, Day Number 7
# Procedure: Bananas were handled and tested as in Example US-1, except that the number of bananas per bag was varied. Concentration of 1-MCP was 1,000 ppb. Also, two different types of MAP bags were used: type M and type D, as described above. Bananas were evaluated on day #7 after treatment with 1-MCP.
# bananas [2] = test: Example 2C: evaluation process C (22° C. after MCP); crown mold and crown rot; format: in vivo, Musa; conditions: 7 days in bag at approx. 22° C., rating 0-3
# Text: Bananas may be inspected for the incidence of crown mold. Crown mold is observed and given a numerical rating as follows: 0 (apparently healthy and disease-free fruit); 1 (mycelia not easily detectable with naked eye, but obvious slight disease is visible on the crown); 2 (presence of some visible mycelia on the crown and moderate disease damage on the crown; 3 (clearly visible mycelia on the crown with severe disease damage on the crown).
# Bananas may be inspected for the incidence of crown rot. When disease damage is apparent but no fungus is visible, crown rot is reported, with the degree of damage assessed as follows: 0 (apparently healthy and disease-free fruit); 1 (obvious slight disease is visible on the crown); 2 (moderate disease damage on the crown; 3 (severe disease damage on the crown).
# Bananas were harvested at 13 weeks of age. Fruit bunches were separated into hands, then washed, and excess latex was removed in chlorinated water tanks using standard commercial practices. The washed hands of bananas were further broken into clusters and treated with fungicide. Clusters were placed into plastic bags; each bag held approximately 1.4 kg (3 lbs) of bananas. The bananas remained in these bags until they were removed for evaluation (see below).
# At day 5 at approximately 4 pm, the bananas had reached color stage 2.5 to 3.5. Treatment groups PE-3-C, PE-10-C, MAP-3, and MAP-10 were then exposed to 1-MCP overnight at the concentrations shown above.
# Some of the bananas from each group described in Example 2 were evaluated by process “C” as follows: After treatment groups PE-3-C, PE-10-C, MAP-3, and MAP-10 received exposure to 1-MCP, the bananas remained in their bags and were held at approximately 22° C. The bananas were inspected daily while they remained in the bags.
# After 7 days at approximately 22° C., results were as follows: […]
# [3] = MAP-10: MAP bag, 1000 ppb 1-MCP
# [4] = PE-10-C: PE bag, 1000 ppb 1-MCP
compound,measurement,setting,value
"CC1=CC1 [1-MCP, 1-methylcyclopropene]",Color Stage,"bananas [1]; MAP type D, 1 bananas per bag",6.7
same,Sugar Spots,"bananas [1]; MAP type D, 1 bananas per bag",0.7
same,Color Stage,"bananas [1]; MAP type D, 2 bananas per bag",5.5
same,Sugar Spots,"bananas [1]; MAP type D, 2 bananas per bag",1.0
same,Color Stage,"bananas [1]; MAP type D, 3 bananas per bag",5.5
same,Sugar Spots,"bananas [1]; MAP type D, 3 bananas per bag",0.3
same,Color Stage,"bananas [1]; MAP type D, 4 bananas per bag",5.5
same,Sugar Spots,"bananas [1]; MAP type D, 4 bananas per bag",0.7
same,Color Stage,"bananas [1]; MAP type D, 5 bananas per bag",4.8
same,Sugar Spots,"bananas [1]; MAP type D, 5 bananas per bag",1.3
same,Color Stage,"bananas [1]; MAP type D, 6 bananas per bag",5.2
same,Sugar Spots,"bananas [1]; MAP type D, 6 bananas per bag",0.3
same,Color Stage,"bananas [1]; MAP type D, 7 bananas per bag",4.8
same,Sugar Spots,"bananas [1]; MAP type D, 7 bananas per bag",0.7
same,Color Stage,"bananas [1]; MAP type D, 8 bananas per bag",4.5
same,Sugar Spots,"bananas [1]; MAP type D, 8 bananas per bag",0.0
same,Color Stage,"bananas [1]; MAP type D, 9 bananas per bag",4.5
same,Sugar Spots,"bananas [1]; MAP type D, 9 bananas per bag",0.7
same,Color Stage,"bananas [1]; MAP type D, 10 bananas per bag",4.5
same,Sugar Spots,"bananas [1]; MAP type D, 10 bananas per bag",0.0
same,Color Stage,"bananas [1]; MAP type D, 11 bananas per bag",4.3
same,Sugar Spots,"bananas [1]; MAP type D, 11 bananas per bag",0.0
same,Color Stage,"bananas [1]; MAP type D, 12 bananas per bag",4.5
same,Sugar Spots,"bananas [1]; MAP type D, 12 bananas per bag",0.0
same,Color Stage,"bananas [1]; MAP type M, 1 bananas per bag",6.2
same,Sugar Spots,"bananas [1]; MAP type M, 1 bananas per bag",2.0
same,Color Stage,"bananas [1]; MAP type M, 2 bananas per bag",5.3
same,Sugar Spots,"bananas [1]; MAP type M, 2 bananas per bag",1.7
same,Color Stage,"bananas [1]; MAP type M, 3 bananas per bag",4.8
same,Sugar Spots,"bananas [1]; MAP type M, 3 bananas per bag",2.0
same,Color Stage,"bananas [1]; MAP type M, 4 bananas per bag",5.3
same,Sugar Spots,"bananas [1]; MAP type M, 4 bananas per bag",1.0
same,Color Stage,"bananas [1]; MAP type M, 5 bananas per bag",5.2
same,Sugar Spots,"bananas [1]; MAP type M, 5 bananas per bag",1.0
same,Color Stage,"bananas [1]; MAP type M, 6 bananas per bag",4.8
same,Sugar Spots,"bananas [1]; MAP type M, 6 bananas per bag",1.0
same,Color Stage,"bananas [1]; MAP type M, 7 bananas per bag",5.0
same,Sugar Spots,"bananas [1]; MAP type M, 7 bananas per bag",0.0
same,Color Stage,"bananas [1]; MAP type M, 8 bananas per bag",4.5
same,Sugar Spots,"bananas [1]; MAP type M, 8 bananas per bag",1.0
same,Color Stage,"bananas [1]; MAP type M, 9 bananas per bag",4.5
same,Sugar Spots,"bananas [1]; MAP type M, 9 bananas per bag",0.7
same,Color Stage,"bananas [1]; MAP type M, 10 bananas per bag",5.2
same,Sugar Spots,"bananas [1]; MAP type M, 10 bananas per bag",1.0
same,Color Stage,"bananas [1]; MAP type M, 11 bananas per bag",4.5
same,Sugar Spots,"bananas [1]; MAP type M, 11 bananas per bag",0.0
same,Color Stage,"bananas [1]; MAP type M, 12 bananas per bag",4.5
same,Sugar Spots,"bananas [1]; MAP type M, 12 bananas per bag",0.0
same,Crown Mold,"bananas [2]; MAP-3: MAP bag, 300 ppb 1-MCP",1.04
same,Crown Rot,"bananas [2]; MAP-3: MAP bag, 300 ppb 1-MCP",1.18
same,Crown Mold,bananas [2]; [3],1.00
same,Crown Rot,bananas [2]; [3],1.18
same,Crown Mold,"bananas [2]; PE-3-C: PE bag, 300 ppb 1-MCP",1.50
same,Crown Rot,"bananas [2]; PE-3-C: PE bag, 300 ppb 1-MCP",1.72
same,Crown Mold,bananas [2]; [4],1.09
same,Crown Rot,bananas [2]; [4],1.27
